Data from patent US20200268765A1, “METHOD OF TREATING MEDULLOBLASTOMA WITH AN EZH2 INHIBITOR” (Epizyme, Inc., priority 2015, published 2020).
“Also recorded” adds a separate entry of the source.

Columns and labels:
[1] = system: ATRX mutant SCLC lines NCI-H446, SW1271 and NCI-H841; experiment: Response of ATRX mutant SCLC lines; assay type: cell-based; settings: FIGS. 8A-8C
Text: FIGS. 8A-8C are three graphs establishing that ATRX mutant SCLC lines NCI-H446 (FIG. 8A), SW1271 (FIG. 8B) and NCI-H841 (FIG. 8C) are responding to Compound D.

[2] = system: G401 SNF mutant cell line; experiment: Soft agar growth of G401 versus RD cells; assay type: cell-based; settings: after 7 days in soft agar, compared to wild type cells RD; FIGS. 3A-3D
Text: FIGS. 3A-3D are a series of bar graphs showing that G401 SNF mutant cell line is responding to Compound D after 7 days in soft agar compared to wild type cells RD.

[3] = system: SNF5 mutant cell lines A204, G401 and G402; experiment: Response of SNF5 mutant versus wild type cell lines to EZH2 compound; assay type: cell-based; settings: compared to wild type cell lines RD and SJCRH30; FIGS. 2A-2E
[4] = system: SCLC line NCI-H841; experiment: Microscopy of cell morphology; assay type: cell-based; settings: 4.1E-02 uM or 3.3 uM; FIGS. 9A-9C
[5] = system: LNCAP prostate cancer cells; experiment: LNCAP cell growth inhibition in vitro; assay type: cell-based; settings: FIG. 7A
[6] = system: medulloblastoma cells; experiment: Medulloblastoma cell growth (total cells per milliliter over time); assay type: cell-based; settings: for medulloblastoma cell growth (total cells per milliliter): as a function of time (days), FIGS. 26A-26C
Text: The total cells per milliliter of culture were counted each day for 10 days.

[7] = system: ATRT; experiment: ATRT survival in vivo; settings: versus vehicle; FIG. 29A
[8] = system: SMARCB1-deleted MRT cells; experiment: Cell cycle analysis (flow cytometry) and apoptosis (TUNEL assay); assay type: cell-based; settings: 1 μM, up to 14 days, FIG. 13
Description: Cell cycle analysis (by flow cytometry) and determination of apoptosis (by TUNEL assay) in RD (FIG. 13A) or G401 cells (FIG. 13B) during incubation with either vehicle or 1 μM Compound A for up to 14 days. G1 arrest was observed as of day 7 and apoptosis was induced as of day 11. Data are represented as mean values±SEM (n=2). The DMSO control values shown are the average±SEM from each time point. Cells were split and re-plated on days 4, 7 and 11 at the original seeding density.

[9] = system: G401 SNF5 mutant cell line; experiment: CellTiter-Glo Luminescent Cell Viability Assay after 7 days pretreatment; assay type: cell-based; settings: pretreated for 7 days, replated on day 0; FIGS. 4A-4D
Description: FIGS. 4A-4D are four graphs showing that G401 SNF5 mutant cell line is sensitive to Compound A in vitro. Wild type cell line SJCRH30 (FIG. 4A) and RD (FIG. 4C) and SNF5 mutant cell line G401 (FIG. 4B) and A204 (FIG. 4D) were pretreated for 7 days with indicated concentrations of Compound A and replated on day 0. Cell viability was determined by CellTiter-Glo® Luminescent Cell Viability Assay.

[10] = system: SMARCB1 regulated genes; experiment: Gene expression by qPCR; assay type: cell-based; settings: G401 and RD cells, 1 μM, 2, 4 and 7 days; FIGS. 14A-14L
Description: FIG. 14A: Basal expression of SMARCB1 regulated genes in G401 SMARCB1-deleted cells, relative to RD control cells (measured by qPCR, n=2). FIGS. 14B-14K: G401 and RD cells were incubated with either DMSO or 1 μM Compound A for 2, 4 and 7 days. Gene expression was determined by qPCR (n=2) and is expressed relative to the DMSO control of each time point. FIGS. 14B-14K correspond to genes GLI1, PTCh1, DOCK4, CD133, PTPRK, BIN1, CDKN1A, CDKN2A, EZH2, and MYC, respectively. FIG. 14L: G402 cells were incubated with either DMSO (left panel) or 1 μM Compound A (right panel) for 14 days. Cells were split and re-plated to the original seeding density on day 7.

[11] = system: cellular H3K27Me3 levels in G401 and RD cells; experiment: Cellular histone methylation (immunoblot of acid-extracted histones); assay type: cell-based
Description: FIGS. 10A-10F are a series of graphs showing effects of Compound A on cellular global histone methylation and cell viability.
FIG. 12A: Cell lysates were analyzed by immunoblot with antibodies specific to SMARCB1, EZH2 and Actin (loading control). […] Cells were incubated with Compound A for 4 days, and acid-extracted histones were analyzed by immunoblot.

[12] = Oral bioavailability; settings: in vivo
[13] = system: primary medulloblastoma cells
Description: FIG. 28A is a schematic diagram depicting the process by which primary medulloblastoma cell growth is evaluated ex vivo.
A slice culture of medulloblastoma was freshly isolated from a subject.
A patient having medulloblastoma underwent surgery to remove a slice of tumor tissue for testing. The medulloblastoma slice was cultured ex vivo on tissue supporting inserts (FIG. 28A). […] Following the treatment period, the cells of the slice culture were treated with BrdU for 4 hours prior to disaggregation and sorting by flow cytometry.

[14] = system: G401 xenografts; experiment: G401 xenograft (malignant rhabdoid tumor model); assay type: in vivo, SCID mice
Description: Data represent the mean values±SEM (n=8). Compound administration was stopped on day 28. FIG. 5C: EZH2 target inhibition in G401 xenograft tumor tissue collected from a parallel cohort of mice on day 21. […] Horizontal lines represent group mean values. BLLQ=below lower limit of quantification. FIGS. 5D and 5E show Immunohistochemical staining of tumor histone methylation of tumor samples from the vehicle treated (FIG. 5D) and Compound A treated (FIG. 5E) (at 125 mg/kg) mice.
Data are presented as mean values±SEM (n=16 until day 21, n=8 from day 22 to 60). […] FIG. 15C: Tumor weights of 8 mice euthanized on day 21. ****p<0.0001, Fisher's exact test. FIG. 15D: Plasma was collected 5 min before and 3 h after dosing of Compound A on day 21, and compound levels were measured by LC-MS/MS. Animals were euthanized, and tumors were collected 3 h after dosing on day 21. Tumor homogenates were generated and subjected to LC-MS/MS analysis to determine Compound A concentrations. Note that tumor compound levels could not be determined from all animals especially in the higher dose groups because the xenografts were too small on day 21. Dots represent values for the individual animals; horizontal lines represent group mean values.
FIGS. 16A-16F are a series of graphs showing that Compound A eradicates SMARCB1-deleted MRT xenografts in SCID mice. […]

[15] = system: UPN737 ATRT cell line; experiment: Surviving fraction after 2Gy radiation, UPN737; assay type: cell-based; settings: FIG. 25B
Text: FIG. 25B is a pair of graphs showing a surviving fraction of untreated or DZNEP-treated ATRT cells (from a UPN737 ATRT cell line, “737”) exposed to 2Gy radiation. Inhibition of EZH2 radio-sensitizes ATRT.

[16] = system: BT-16 ATRT cell line; experiment: Surviving fraction after 2Gy radiation, BT-16; assay type: cell-based; settings: FIG. 25A
Text: FIG. 25A is a pair of graphs showing a surviving fraction of untreated or DZNEP-treated ATRT cells (from a BT-16 ATRT cell line) exposed to 2Gy radiation. Inhibition of EZH2 radio-sensitizes ATRT.

[17] = system: atypical teratoid rhabdoid tumors (ATRTs); experiment: ATRT cell self-renewal; assay type: cell-based
Text: FIG. 24A is a series of photographs showing control or EZH2 inhibitor-treated (DNZep-treated) atypical teratoid rhabdoid tumors (ATRTs) at 1, 3, 5, and 7 days post-treatment.
FIG. 24D is a series of photographs showing control or EZH2 inhibitor-treated (DNZep-treated) atypical teratoid rhabdoid tumors (ATRTs) at 3, 5, 8 and 10 days post-treatment.

[18] = 500 nM or 2 μM, 4 days, compared to untreated control

CCN(c1cc(-c2ccc(CN3CCOCC3)cc2)cc(C(=O)NCc2c(C)cc(C)[nH]c2=O)c1C)[C@H]1CC[C@H](N(C)C)CC1 [Compound D]
response of cell lines [1]: responding
response in soft agar [2]: responding
response of cell lines to EZH2 compound [3]: selectively respond
cell morphology [4]: changes morphology
cell growth inhibition [5]: dose-dependent cell growth inhibition

CCCc1cc(C)[nH]c(=O)c1CNC(=O)c1cc(-c2ccc(N3CCN(C(C)C)CC3)nc2)cc2c1cnn2C(C)C [UNC 1999, reference compound]
medulloblastoma cell growth (total cells per milliliter) [6]: decrease medulloblastoma cell growth

CC[C@H](C)n1cc(C)c2c(C(=O)NCc3c(C)cc(C)[nH]c3=O)cc(-c3ccc(N4CCNCC4)nc3)cc21 [GSK-126, reference compound]
medulloblastoma cell growth (total cells per milliliter) [6]: decrease medulloblastoma cell growth

CCN(c1cc(-c2ccc(CN3CCOCC3)cc2)cc(C(=O)NCc2c(C)cc(C)[nH]c2=O)c1C)C1CCOCC1 [tazemetostat]
percent survival / ATRT in vivo [7]: decreases ATRT in vivo
day as of which apoptosis was induced ([8]; TUNEL): 11 days
day as of which G1 arrest was observed [8]: 7 days
cell viability (sensitivity in vitro) [9]: sensitive
expression of SMARCB1 regulated genes [10]: induces changes in expression
inhibition of cellular H3K27 methylation (specificity) ([11]; 4 days incubation, immunoblot, FIG. 12B): Selective inhibition of cellular H3K27 methylation
inhibition of cellular H3K27Me3 levels ([11]; FIG. 10B): Concentration-dependent inhibition
medulloblastoma cell growth versus negative control (DMSO) ([6]; 0.5 μM, 2 μM and 6 μM, counted each day for 10 days, FIG. 26C): significant decrease
effect on medulloblastoma cell growth compared with the other small molecule inhibitors tested ([6]; GSK-126, UNC 1999 and tazemetostat, FIG. 26D): superior ability to decrease medulloblastoma cell growth; also recorded: greatest effect
medulloblastoma cell growth (total cells per milliliter) [6]: decrease medulloblastoma cell growth
oral bioavailability [12]: orally bioavailable
proportion of cells in the G0/G1 stage [13, 18]: increased proportion
proportion of cells in the G2/M stage [13, 18]: decreased proportion
primary medulloblastoma cell growth ex vivo (cell cycle stages) ([13]; slice culture treated 4 days, FIG. 28B): decreases primary medulloblastoma cell growth ex vivo
primary medulloblastoma cell growth ex vivo (BrdU) ([13]; slice culture treated 4 days, FIG. 28C): decreases primary medulloblastoma cell growth ex vivo
tumor regression ([14]; administration stopped on day 28, FIGS. 5A-5B): durable regressions
tumor regression ([14]; twice daily (BID) for 21 days, FIG. 15B): Tumor regressions induced

Nc1nccc2c1ncn2C1C=C(CO)C(O)C1O (stereo not shown) [DNZep]
radio-sensitization (surviving fraction) [15]: radio-sensitizes
radio-sensitization (surviving fraction) [16]: radio-sensitizes
ATRT cell self-renewal ([17]; 1, 3, 5, and 7 days post-treatment, FIG. 24A): suppresses ATRT cell self-renewal
ATRT cell self-renewal ([17]; 3, 5, 8 and 10 days post-treatment, FIG. 24D): suppresses ATRT cell self-renewal
